Experimental data reported in article PMC10303271, “Synthesis and Receptor Binding Studies of α5 GABAAR Selective Novel Imidazodiazepines Targeted for Psychiatric and Cognitive Disorders” (Molecules, 2023).
Read-outs that look alike come from different tables or passages of the source.

Experiments:
A1 = target: T1, A1 (Homo sapiens, UniProt P30542); test: PDSP primary binding A1; conditions: 1.5 h; primary binding, 10,000 nM; last figure of the line = mean of the 4 before it; read-out: A1, PDSP raw data, mean
T1 construct: purchased NIMH Psychoactive Drug Screening Program (PDSP)
T1 sequence (P30542 1-326): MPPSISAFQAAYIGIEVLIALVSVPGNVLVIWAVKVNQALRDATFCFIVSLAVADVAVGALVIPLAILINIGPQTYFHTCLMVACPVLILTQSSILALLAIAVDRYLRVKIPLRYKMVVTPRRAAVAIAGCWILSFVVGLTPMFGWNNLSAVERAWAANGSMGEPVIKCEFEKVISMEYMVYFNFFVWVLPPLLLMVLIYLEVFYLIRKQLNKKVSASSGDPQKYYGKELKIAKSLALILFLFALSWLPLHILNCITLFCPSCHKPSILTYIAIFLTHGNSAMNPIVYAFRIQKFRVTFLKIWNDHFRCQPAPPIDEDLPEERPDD
Experimental: (§1) To determine if any off-target receptor-binding effects are present, all the novel ligands were sent to the National Institute of Mental Health (NIMH), Psychoactive Drug Screening Program (PDSP). The ligands were screened over a panel of 47 receptors, ion channels, and transporters to determine any other possible interactions with […]. The hERG-binding was also determined. […] No binding of the test compounds to calcium channels was observed. […] It is necessary to screen the compounds for hERG-binding during the early process of drug discovery. The unintentional binding of many drugs to hERG can cause blockade of hERG K+ channels in the heart, which can cause many side effects including cardiac arrhythmias and sudden death. […] All of the α5 imidazodiazepines were tested for hERG-binding.
(§2) The NIMH PDSP assay protocol book [https://kidbdev.med.unc.edu/databases/PDSP%20Protocols%20II%202013-03-28.pdf accessed on 23 April 2023]. describes the protocols for primary and secondary radio-ligand binding assays. These assays were carried out in a final volume of 125 µL per well in the appropriate binding buffer.
(§3) The binding of a ligand to a receptor, ion channel, or transporter was determined in the […] of 10 µM of the appropriate reference compound. […] Plates were incubated in the dark for 90 min at rt, and the reactions were stopped by vacuum filtration onto 0.3% polyethyleneimine (PEI) soaked 96-well filter mats using a 96-well Filtermateharvester. This was followed by three washes with cold PBS buffer. Radioactivity was then counted on a Microbeta counter. Nonlinear regression was used to analyze the data with N = 6 replicates.

MOR = target: T2, MOR (Homo sapiens, UniProt P35372); test: PDSP radioligand binding at MOR; conditions: 1.5 h
T2 construct: purchased NIMH Psychoactive Drug Screening Program (PDSP)
T2 sequence (P35372 whole entry): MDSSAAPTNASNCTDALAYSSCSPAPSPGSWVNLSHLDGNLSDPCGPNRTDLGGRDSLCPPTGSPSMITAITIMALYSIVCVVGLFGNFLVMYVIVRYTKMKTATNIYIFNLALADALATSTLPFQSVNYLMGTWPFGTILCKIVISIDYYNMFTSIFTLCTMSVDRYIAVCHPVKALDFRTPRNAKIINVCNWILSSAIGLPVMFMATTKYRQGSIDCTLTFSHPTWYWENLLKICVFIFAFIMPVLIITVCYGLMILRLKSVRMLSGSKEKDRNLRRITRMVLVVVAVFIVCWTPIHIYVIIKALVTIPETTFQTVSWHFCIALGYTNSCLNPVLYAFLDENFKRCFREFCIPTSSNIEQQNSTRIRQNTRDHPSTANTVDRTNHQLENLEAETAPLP
Text: (§4) Opioid receptors are a family of inhibitory G-coupled protein receptors where opioids act as the ligand. The kappa opioid receptors (KOR), µ and δ opioid receptors (MOR and DOR), and nociception opioid receptor (NOP) fall under the family of opioids receptors. It has been reported that oxadiazole imidazodiazepines can mediate analgesic and anti-inflammatory properties mediated also by the κ opioid receptor (KOR). The binding at KOR is usually silent. The affinities of the test compounds for KOR, DOR, and MOR were determined using radioligand binding assays at a screening concentration of 10,000 nM in collaboration with the National Institute of Mental Health’s Psychoactive Drug Screening Program (PDSP), as mentioned before. Concentration-dependent experiments were conducted to determine Ki values for the compounds that exceeded more than 50% radioligand displacement in primary binding assays.
as §2, §3

V1B = target: T3, V1B (Homo sapiens, UniProt P47901); test: PDSP primary binding V1B; conditions: primary binding, 10,000 nM; last figure of the line = mean of the 4 before it; read-out: V1B, PDSP raw data, mean
T3 construct: purchased NIMH Psychoactive Drug Screening Program (PDSP)
T3 sequence (P47901 1-424): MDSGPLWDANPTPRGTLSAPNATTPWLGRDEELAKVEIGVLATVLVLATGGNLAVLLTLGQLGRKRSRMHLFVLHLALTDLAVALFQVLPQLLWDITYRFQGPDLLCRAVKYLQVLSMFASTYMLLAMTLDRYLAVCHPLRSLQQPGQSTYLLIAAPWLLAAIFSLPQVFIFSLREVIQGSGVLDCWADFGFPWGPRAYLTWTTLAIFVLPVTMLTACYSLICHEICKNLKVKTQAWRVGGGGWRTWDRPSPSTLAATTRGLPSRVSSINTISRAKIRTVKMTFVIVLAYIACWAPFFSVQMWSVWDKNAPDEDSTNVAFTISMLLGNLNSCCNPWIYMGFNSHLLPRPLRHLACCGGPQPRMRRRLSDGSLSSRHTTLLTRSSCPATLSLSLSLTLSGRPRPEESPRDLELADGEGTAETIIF
Experimental: as §1, §2, §3

Alpha2Beta4 = target: T4, Alpha2Beta4 (Rattus norvegicus, UniProt P12389+P12392); test: PDSP primary binding Alpha2Beta4; conditions: primary binding, 10,000 nM; last figure of the line = mean of the 4 before it; read-out: Alpha2Beta4, PDSP raw data, mean
T4 construct: purchased NIMH Psychoactive Drug Screening Program (PDSP)
T4 sequence (P12389 28-511): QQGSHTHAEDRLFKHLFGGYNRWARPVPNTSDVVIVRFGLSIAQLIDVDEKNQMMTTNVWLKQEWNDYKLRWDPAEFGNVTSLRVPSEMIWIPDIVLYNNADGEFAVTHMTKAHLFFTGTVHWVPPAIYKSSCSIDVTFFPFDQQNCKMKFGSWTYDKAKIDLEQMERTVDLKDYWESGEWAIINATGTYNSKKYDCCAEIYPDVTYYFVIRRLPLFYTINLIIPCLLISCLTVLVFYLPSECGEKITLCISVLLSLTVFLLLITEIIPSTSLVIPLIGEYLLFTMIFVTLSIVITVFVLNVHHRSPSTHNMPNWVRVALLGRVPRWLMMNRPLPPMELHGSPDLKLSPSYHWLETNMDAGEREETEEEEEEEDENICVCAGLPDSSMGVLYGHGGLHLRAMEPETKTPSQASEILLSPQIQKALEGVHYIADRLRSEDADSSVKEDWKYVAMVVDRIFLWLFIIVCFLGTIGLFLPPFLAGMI
T4 sequence (P12392 21-495): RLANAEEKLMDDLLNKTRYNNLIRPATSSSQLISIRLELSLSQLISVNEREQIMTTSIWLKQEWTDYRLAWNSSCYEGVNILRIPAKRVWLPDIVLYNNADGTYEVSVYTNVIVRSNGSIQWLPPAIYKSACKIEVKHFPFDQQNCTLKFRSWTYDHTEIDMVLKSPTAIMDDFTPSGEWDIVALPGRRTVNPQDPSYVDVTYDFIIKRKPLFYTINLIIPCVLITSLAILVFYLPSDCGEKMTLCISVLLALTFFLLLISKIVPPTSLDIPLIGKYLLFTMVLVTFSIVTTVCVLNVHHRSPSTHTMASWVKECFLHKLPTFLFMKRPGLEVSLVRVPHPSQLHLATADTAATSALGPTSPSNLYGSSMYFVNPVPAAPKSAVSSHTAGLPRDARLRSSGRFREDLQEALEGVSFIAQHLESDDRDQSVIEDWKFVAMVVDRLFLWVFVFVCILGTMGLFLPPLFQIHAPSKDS
Experimental: as §1, §2, §3

NR2B = test: PDSP primary binding NR2B; conditions: primary binding, 10,000 nM; last figure of the line = mean of the 4 before it
Experimental: as §1, §2, §3

DOR = target: T5, DOR (Homo sapiens, UniProt P41143); test: PDSP radioligand binding at DOR
T5 construct: purchased NIMH Psychoactive Drug Screening Program (PDSP)
T5 sequence (P41143 whole entry): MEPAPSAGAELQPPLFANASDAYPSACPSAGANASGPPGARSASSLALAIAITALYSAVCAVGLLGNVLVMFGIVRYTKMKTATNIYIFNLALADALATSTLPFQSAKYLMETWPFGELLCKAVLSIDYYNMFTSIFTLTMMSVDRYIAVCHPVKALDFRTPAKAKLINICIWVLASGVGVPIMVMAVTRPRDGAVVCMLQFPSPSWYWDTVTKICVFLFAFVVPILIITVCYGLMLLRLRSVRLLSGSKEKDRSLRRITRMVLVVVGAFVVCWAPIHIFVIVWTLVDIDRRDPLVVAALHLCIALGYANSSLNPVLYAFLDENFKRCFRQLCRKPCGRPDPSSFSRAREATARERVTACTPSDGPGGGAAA
Text: as §4, §2, §3

5-HT5A = target: T6, 5-HT5A (Homo sapiens, UniProt P47898); test: PDSP primary binding 5-HT5A; conditions: 1.5 h; primary binding, 10,000 nM; last figure of the line = mean of the 4 before it; read-out: 5-HT5A, PDSP raw data, mean
T6 construct: purchased NIMH Psychoactive Drug Screening Program (PDSP)
T6 sequence (P47898 whole entry): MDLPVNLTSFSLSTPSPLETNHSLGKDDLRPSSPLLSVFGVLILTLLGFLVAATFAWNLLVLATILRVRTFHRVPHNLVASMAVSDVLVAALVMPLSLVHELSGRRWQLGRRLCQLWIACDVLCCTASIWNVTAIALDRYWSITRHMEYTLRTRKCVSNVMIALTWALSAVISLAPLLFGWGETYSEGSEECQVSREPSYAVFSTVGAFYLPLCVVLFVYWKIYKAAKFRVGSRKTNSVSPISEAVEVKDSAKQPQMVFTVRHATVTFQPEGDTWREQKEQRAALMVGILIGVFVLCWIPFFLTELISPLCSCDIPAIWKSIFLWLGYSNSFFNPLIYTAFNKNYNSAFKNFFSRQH
Experimental: as §1, §2, §3

5-HT2A = target: T7, 5-HT2A (Homo sapiens, UniProt P28223); test: PDSP primary binding 5-HT2A; conditions: 1.5 h; primary binding, 10,000 nM; last figure of the line = mean of the 4 before it; read-out: 5-HT2A, PDSP raw data, mean
T7 construct: purchased NIMH Psychoactive Drug Screening Program (PDSP)
T7 sequence (P28223 whole entry): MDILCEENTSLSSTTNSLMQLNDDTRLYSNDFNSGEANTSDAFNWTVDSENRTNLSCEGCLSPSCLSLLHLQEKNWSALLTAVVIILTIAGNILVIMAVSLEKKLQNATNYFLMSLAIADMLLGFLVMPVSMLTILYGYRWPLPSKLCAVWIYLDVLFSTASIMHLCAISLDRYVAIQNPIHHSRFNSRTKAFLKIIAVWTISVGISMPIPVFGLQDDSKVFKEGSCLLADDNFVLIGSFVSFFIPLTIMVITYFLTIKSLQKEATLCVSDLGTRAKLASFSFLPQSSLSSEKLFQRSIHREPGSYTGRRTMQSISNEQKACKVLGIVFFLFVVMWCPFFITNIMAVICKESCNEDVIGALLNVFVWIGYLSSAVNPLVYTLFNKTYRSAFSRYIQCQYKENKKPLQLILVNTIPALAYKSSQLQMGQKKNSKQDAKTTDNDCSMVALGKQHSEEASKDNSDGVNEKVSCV
Experimental: as §1, §2, §3

NTS1 = target: T8, NTS1 (Homo sapiens, UniProt P30989); test: PDSP primary binding NTS1; conditions: primary binding, 10,000 nM; last figure of the line = mean of the 4 before it; read-out: NTS1, PDSP raw data, mean
T8 construct: purchased NIMH Psychoactive Drug Screening Program (PDSP)
T8 sequence (P30989 whole entry): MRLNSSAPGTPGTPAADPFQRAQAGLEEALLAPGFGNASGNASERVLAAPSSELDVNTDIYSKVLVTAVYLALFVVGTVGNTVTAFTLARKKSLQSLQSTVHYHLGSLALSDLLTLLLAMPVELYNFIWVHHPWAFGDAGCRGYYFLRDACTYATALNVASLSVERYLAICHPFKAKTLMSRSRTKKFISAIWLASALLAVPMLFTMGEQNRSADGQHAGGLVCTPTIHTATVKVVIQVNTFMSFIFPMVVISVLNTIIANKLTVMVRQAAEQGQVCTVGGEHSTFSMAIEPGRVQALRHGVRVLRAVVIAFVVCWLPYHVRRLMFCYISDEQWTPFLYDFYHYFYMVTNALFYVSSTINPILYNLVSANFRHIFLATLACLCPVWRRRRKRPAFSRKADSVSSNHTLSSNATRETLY
Experimental: as §1, §2, §3

D1 = target: T9, D1 (Homo sapiens, UniProt P21728); test: PDSP primary binding D1; conditions: 1.5 h; primary binding, 10,000 nM; last figure of the line = mean of the 4 before it; read-out: D1, PDSP raw data, mean
T9 construct: purchased NIMH Psychoactive Drug Screening Program (PDSP)
T9 sequence (P21728 whole entry): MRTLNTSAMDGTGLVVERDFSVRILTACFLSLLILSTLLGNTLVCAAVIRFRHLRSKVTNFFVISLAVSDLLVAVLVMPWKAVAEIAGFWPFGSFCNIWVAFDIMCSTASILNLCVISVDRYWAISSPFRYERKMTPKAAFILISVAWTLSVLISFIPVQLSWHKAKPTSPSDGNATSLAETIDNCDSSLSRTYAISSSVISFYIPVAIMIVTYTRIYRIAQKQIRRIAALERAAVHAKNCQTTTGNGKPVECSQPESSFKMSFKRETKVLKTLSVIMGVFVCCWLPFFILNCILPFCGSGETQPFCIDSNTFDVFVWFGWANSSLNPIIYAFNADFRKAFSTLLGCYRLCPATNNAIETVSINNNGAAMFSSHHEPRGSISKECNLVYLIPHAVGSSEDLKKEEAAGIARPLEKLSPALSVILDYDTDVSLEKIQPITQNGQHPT
Experimental: as §1, §2, §3

[1] = at 10,000 nM, N = 5, [3H]-DAMGO 1.20 nM, read-out: Primary Binding %MOR
[2] = primary binding, 10,000 nM, last figure of the line = mean of the 4 before it, read-out: MOR, PDSP raw data, mean
[3] = at 10,000 nM, N = 5, [3H]-DADLE 2.69 nM, read-out: Primary Binding %DOR
[4] = primary binding, 10,000 nM, last figure of the line = mean of the 4 before it, read-out: DOR, PDSP raw data, mean

Row | SMILES | inhibition at 10 µM (A1) | inhibition at 10 µM (MOR; [1]) | inhibition at 10 µM (MOR; [2]) | inhibition at 10 µM (V1B) | inhibition at 10 µM (Alpha2Beta4) | NR2B, PDSP raw data, mean (NR2B) | inhibition at 10 µM (DOR; [3]) | inhibition at 10 µM (DOR; [4]) | inhibition at 10 µM (5-HT5A) | inhibition at 10 µM (5-HT2A) | inhibition at 10 µM (NTS1) | inhibition at 10 µM (D1)
1 | C#Cc1ccc2c(c1)C(c1ccccc1F)=N[C@H](C)c1c(C(=S)N(C)C)ncn1-2 [Compound 33, (R)-8-Ethynyl-6-(2′-fluorophenyl)-N,N,4-trimethyl-4H-benzo[f]imidazo[1,5-a][1,4]diazepine-3-carbothioamide] | 25.9% | -2.4 ± 5.72% | -11.2% | 1.4% | 4.82% | 3.79% | 13.2 ± 7.83% | 43% | 53.6% | 10.7% | -16.7% | -35.4%
2 | C#Cc1ccc2c(c1)C(c1ccccc1Cl)=N[C@H](C)c1c(C(=O)NC)ncn1-2 [Compound 21, (R)-6-(2′-Chlorophenyl)-8-ethynyl-N,4-dimethyl-4H-benzo[f]imidazo[1,5-a][1,4]diazepine-3-carboxamide] | -13.3% | -3.57 ± 7.68% | -3.57% | 45.8% | 7.67% | -8.82% | 28.3 ± 4.67% | 28.3% | 2.76% | -7.9% | -25.2% | 9.47%
3 | CCc1noc(-c2ncn3c2[C@@H](C)N=C(c2ccccc2F)c2cc(C4CC4)ccc2-3)n1 [Compound 46, (R)-5-(8-Cyclopropyl-6-(2′-fluorophenyl)-4-methyl-4H-benzo[f]imidazo[1,5-a][1,4]diazepin-3-yl)-3-ethyl-1,2,4-oxadiazole] | 30.9% |  | 25.1% | 2.67% | 6.41% | 32.88% |  | 67.3% | 23.6% | 23.6% | -29.8% | 74.6%
4 | CC(C)c1noc(-c2ncn3c2[C@@H](C)N=C(c2ccccc2F)c2cc(Cl)ccc2-3)n1 [Compound 37, (R)-5-(8-Chloro-6-(2′-fluorophenyl)-4-methyl-4H-benzo[f]imidazo[1,5-a][1,4]diazepin-3-yl)-3-isopropyl-1,2,4-oxadiazole] | 52.2% | 48.6 ± 4.17% | 48.6% | -15.4% | -5.48% | 34.46% | 31.9 ± 9.58% | 31.9% | -2.71% | 14.1% | -16.3% | 27.4%
5 | CCc1noc(-c2ncn3c2[C@@H](C)N=C(c2ccccc2F)c2cc(Cl)ccc2-3)n1 [Compound 36, (R)-5-(8-Chloro-6-(2′-fluorophenyl)-4-methyl-4H-benzo[f]imidazo[1,5-a][1,4]diazepin-3-yl)-3-ethyl-1,2,4-oxadiazole] | 67.9% | 19.2 ± 5.47% | 19.2% | 22.9% | 10.9% | 14.42% | 40.7 ± 10.2% | 40.7% | -1.84% | 11.1% | -16.9% | 42.8%
6 | C[C@H]1N=C(c2ccccc2F)c2cc(-c3ccccc3)ccc2-n2cnc(C(=O)N(C)C)c21 [Compound 5, (R)-6-(2′-Fluorophenyl)-N,N,4-trimethyl-8-phenyl-4H-benzo[f]imidazo[1,5-a][1,4]diazepine-3-carboxamide] | 25.9% | -11.2 ± 5.72% | -11.2% | 1.4% | 4.82% | 3.79% | 43 ± 7.83% | 43% | 53.6% | 10.7% | -16.7% | -35.4%
7 | C#Cc1ccc2c(c1)C(c1ccccn1)=N[C@@H](C)c1c(C(=O)N(C)C)ncn1-2 [Compound 31, (S)-8-Ethynyl-N,N,4-trimethyl-6-(pyridin-2′-yl)-4H-benzo[f]imidazo[1,5-a][1,4]diazepine-3-carboxamide] | 32.2% | 4.55 ± 12.5% | 4.55% | 24.3% | 6.58% | -10.18% | 6.18 ± 11.2% | 6.18% | -7.46% | -13.1% | 0.28% | -41.5%
8 | C#Cc1ccc2c(c1)C(c1ccccn1)=N[C@@H](C)c1c(C(=O)NC)ncn1-2 [Compound 23, (S)-8-Ethynyl-N,4-dimethyl-6-(pyridin-2′-yl)-4H-benzo[f]imidazo[1,5-a][1,4]diazepine-3-carboxamide] | 10.4% | 5.24 ± 10.7% | 5.24% | -4.18% | 4.5% | -22.69% | 14.9 ± 8.84% | 14.9% | -2.76% | -0.6% | -5.89% | -37.2%
9 | C#Cc1ccc2c(c1)C(c1ccccc1Cl)=N[C@H](C)c1c(C(=O)N(C)CC)ncn1-2 [Compound 29] | -6.38% | 7.31 ± 9.54% | 7.31% | 11% | 3.06% | -14.08% | 39.5 ± 3.21% | 39.5% | -3.73% | -3.89% | -19.5% | -31.5%
